Reference: paper PMC5097156, “Potent and selective chemical probe of hypoxic signalling downstream of HIF-α hydroxylation via VHL inhibition” (Nature Communications, 2016)

How the values were obtained:
Test in all cases: biochemical
Design in all cases: CEREP ExpresSProfile competition binding, remaining control specific binding of reference compound
Settings in all cases: radioligand binding; read-out: Mean % of control specific binding (±sd)
EP4 (h) = molecular target: T1, EP4 (h) (Homo sapiens, UniProt P35408)
T1 construct: gene PTGER4
T1 sequence (P35408 whole entry): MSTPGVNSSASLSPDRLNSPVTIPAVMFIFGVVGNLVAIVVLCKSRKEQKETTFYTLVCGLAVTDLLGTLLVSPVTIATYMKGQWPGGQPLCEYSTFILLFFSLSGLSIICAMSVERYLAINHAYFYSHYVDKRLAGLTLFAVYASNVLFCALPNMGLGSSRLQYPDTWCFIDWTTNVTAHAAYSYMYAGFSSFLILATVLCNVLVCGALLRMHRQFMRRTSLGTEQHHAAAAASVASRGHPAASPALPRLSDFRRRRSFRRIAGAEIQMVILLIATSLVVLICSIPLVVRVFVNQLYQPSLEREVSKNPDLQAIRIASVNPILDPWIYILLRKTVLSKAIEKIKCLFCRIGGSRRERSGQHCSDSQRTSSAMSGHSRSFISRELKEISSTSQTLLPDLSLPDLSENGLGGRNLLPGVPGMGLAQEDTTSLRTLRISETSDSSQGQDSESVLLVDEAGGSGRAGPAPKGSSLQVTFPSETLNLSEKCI

H1 (h) = molecular target: T2, H1 (h) (Homo sapiens, UniProt P35367)
T2 construct: gene HRH1
T2 sequence (P35367 whole entry): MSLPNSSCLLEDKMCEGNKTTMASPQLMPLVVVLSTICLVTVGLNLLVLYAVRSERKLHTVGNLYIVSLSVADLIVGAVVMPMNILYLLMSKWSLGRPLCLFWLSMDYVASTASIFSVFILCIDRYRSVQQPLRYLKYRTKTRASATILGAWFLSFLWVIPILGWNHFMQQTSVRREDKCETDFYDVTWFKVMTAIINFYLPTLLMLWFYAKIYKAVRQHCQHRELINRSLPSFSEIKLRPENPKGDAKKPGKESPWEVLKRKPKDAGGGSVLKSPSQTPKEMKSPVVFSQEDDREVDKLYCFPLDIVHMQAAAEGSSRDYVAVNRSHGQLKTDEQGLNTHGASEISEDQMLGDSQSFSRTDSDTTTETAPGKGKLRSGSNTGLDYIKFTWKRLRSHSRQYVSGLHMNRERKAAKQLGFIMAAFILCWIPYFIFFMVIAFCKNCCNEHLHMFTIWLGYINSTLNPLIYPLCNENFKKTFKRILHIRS

B2 (h) = molecular target: T3, B2 (h) (Homo sapiens, UniProt P30411)
T3 construct: gene BDKRB2

MC4 (h) = molecular target: T4, MC4 (h) (Homo sapiens, UniProt P32245)
T4 construct: gene MC4R

AT1 (h) = molecular target: T5, AT1 (h) (Homo sapiens, UniProt P30556)
T5 construct: gene AGTR1

5-HT5a (h) = molecular target: T6, 5-HT5a (h) (Homo sapiens, UniProt P47898)
T6 construct: gene HTR5A
T6 sequence (P47898 whole entry): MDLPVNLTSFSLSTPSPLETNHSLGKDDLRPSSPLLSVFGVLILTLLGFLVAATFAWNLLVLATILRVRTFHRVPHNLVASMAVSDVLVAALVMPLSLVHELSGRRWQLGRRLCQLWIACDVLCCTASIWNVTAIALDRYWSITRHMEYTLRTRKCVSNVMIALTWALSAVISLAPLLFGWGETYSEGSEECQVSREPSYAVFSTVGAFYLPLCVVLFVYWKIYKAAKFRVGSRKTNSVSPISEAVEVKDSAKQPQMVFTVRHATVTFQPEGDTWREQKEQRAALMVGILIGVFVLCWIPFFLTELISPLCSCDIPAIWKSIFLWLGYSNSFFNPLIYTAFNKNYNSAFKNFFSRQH

A1 (h) = molecular target: T7, A1 (h) (Homo sapiens, UniProt P30542)
T7 construct: gene ADORA1

V1a (h) = molecular target: T8, V1a (h) (Homo sapiens, UniProt P37288)
T8 construct: gene AVPR1A
T8 sequence (P37288 whole entry): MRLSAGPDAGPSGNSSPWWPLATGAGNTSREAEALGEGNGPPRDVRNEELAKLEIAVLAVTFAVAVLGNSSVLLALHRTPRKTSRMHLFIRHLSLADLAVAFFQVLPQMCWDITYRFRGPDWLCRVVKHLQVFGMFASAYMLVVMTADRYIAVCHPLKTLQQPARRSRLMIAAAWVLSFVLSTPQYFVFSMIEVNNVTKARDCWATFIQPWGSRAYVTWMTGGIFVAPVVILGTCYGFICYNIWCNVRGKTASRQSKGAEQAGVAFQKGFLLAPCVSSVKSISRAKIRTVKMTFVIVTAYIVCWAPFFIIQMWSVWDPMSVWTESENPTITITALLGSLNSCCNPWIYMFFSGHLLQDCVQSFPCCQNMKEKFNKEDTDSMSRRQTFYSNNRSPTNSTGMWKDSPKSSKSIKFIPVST

NOP (ORL1) (h) = molecular target: T9, NOP (ORL1) (h) (Homo sapiens, UniProt P41146)
T9 construct: gene OPRL1
T9 sequence (P41146 whole entry): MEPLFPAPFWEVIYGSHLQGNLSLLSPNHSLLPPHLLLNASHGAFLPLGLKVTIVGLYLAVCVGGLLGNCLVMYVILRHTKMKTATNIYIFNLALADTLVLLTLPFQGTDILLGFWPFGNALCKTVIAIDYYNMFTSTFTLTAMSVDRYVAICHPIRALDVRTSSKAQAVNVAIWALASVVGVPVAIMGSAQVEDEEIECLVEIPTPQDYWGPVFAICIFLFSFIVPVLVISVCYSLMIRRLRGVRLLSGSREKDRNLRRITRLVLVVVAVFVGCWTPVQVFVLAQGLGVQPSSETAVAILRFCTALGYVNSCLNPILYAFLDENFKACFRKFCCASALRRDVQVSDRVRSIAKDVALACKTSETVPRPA

5-HT2B (h) = molecular target: T10, 5-HT2B (h) (Homo sapiens, UniProt P41595)
T10 construct: gene HTR2B
T10 sequence (P41595 whole entry): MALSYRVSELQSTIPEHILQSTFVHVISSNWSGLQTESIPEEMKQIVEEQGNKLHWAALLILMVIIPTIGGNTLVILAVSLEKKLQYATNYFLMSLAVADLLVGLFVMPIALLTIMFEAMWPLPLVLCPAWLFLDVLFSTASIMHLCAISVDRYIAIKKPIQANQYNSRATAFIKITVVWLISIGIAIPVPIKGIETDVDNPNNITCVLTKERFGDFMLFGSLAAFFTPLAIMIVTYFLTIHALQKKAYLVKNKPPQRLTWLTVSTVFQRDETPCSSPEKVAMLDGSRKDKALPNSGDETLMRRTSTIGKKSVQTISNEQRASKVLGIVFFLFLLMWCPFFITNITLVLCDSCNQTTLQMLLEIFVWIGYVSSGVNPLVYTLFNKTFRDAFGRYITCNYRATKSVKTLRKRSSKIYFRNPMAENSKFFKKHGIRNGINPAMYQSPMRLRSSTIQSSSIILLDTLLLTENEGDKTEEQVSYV

CCR1 (h) = CCR1 (h) (Homo sapiens, UniProt P32246)
CCR1 (h), sequence (P32246 whole entry): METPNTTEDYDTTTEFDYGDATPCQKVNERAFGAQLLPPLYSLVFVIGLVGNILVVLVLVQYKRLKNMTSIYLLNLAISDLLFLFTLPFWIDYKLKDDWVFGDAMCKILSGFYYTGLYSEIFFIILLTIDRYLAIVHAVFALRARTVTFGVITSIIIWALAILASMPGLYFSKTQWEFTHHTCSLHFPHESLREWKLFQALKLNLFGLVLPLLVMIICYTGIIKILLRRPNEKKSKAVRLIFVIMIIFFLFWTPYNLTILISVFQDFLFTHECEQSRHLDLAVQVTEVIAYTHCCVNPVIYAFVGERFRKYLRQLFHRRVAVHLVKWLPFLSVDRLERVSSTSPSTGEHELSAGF

5-HT7 (h) = molecular target: T11, 5-HT7 (h) (Homo sapiens, UniProt P34969)
T11 construct: gene HTR7

CCK1 (CCKA) (h) = molecular target: T12, CCK1 (CCKA) (h) (Homo sapiens, UniProt P32238)
T12 construct: gene CCKAR

Y2 (h) = molecular target: T13, Y2 (h) (Homo sapiens, UniProt P49146)
T13 construct: gene NPY2R

5-HT1B = molecular target: T14, 5-HT1B (Rattus norvegicus, UniProt P28564)
T14 construct: gene Htr1b; rat cerebral cortex

GAL2 (h) = molecular target: T15, GAL2 (h) (Homo sapiens, UniProt O43603)
T15 construct: gene GALR2

M2 (h) = molecular target: T16, M2 (h) (Homo sapiens, UniProt P08172)
T16 construct: gene CHRM2
T16 sequence (P08172 whole entry): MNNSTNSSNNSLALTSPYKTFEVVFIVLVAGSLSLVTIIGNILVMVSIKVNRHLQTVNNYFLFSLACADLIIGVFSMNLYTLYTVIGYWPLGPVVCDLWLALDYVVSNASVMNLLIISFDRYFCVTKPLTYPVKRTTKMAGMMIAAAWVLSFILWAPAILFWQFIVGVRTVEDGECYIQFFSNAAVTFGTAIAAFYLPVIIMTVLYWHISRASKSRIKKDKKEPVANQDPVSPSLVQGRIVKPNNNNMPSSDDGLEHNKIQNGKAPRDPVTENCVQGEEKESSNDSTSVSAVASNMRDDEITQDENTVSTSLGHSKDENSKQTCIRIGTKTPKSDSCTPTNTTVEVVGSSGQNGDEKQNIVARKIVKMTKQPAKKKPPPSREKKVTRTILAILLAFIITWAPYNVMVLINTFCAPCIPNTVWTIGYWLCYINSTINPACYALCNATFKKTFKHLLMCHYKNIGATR

D2S (h) = molecular target: T17, D2S (h) (Homo sapiens, UniProt P14416)
T17 construct: gene DRD2; D2S short isoform
T17 sequence (P14416 whole entry, canonical isoform): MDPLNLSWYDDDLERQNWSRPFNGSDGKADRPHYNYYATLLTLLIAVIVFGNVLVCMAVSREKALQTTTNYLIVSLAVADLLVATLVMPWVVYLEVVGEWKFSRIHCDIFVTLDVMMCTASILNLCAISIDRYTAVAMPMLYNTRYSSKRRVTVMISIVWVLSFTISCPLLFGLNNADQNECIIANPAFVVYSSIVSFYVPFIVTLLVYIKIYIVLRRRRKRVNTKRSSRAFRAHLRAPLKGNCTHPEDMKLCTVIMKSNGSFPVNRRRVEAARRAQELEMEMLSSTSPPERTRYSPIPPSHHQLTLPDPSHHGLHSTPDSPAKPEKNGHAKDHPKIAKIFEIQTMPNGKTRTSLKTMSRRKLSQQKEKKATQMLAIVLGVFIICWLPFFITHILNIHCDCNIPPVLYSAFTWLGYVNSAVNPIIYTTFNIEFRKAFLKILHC

[1] = molecular target: T18, norepinephrine transporter (h) (Homo sapiens, UniProt P23975)
T18 construct: gene SLC6A2

mu (MOP) (h) = molecular target: T19, mu (MOP) (h) (Homo sapiens, UniProt P35372)
T19 construct: gene OPRM1
T19 sequence (P35372 whole entry): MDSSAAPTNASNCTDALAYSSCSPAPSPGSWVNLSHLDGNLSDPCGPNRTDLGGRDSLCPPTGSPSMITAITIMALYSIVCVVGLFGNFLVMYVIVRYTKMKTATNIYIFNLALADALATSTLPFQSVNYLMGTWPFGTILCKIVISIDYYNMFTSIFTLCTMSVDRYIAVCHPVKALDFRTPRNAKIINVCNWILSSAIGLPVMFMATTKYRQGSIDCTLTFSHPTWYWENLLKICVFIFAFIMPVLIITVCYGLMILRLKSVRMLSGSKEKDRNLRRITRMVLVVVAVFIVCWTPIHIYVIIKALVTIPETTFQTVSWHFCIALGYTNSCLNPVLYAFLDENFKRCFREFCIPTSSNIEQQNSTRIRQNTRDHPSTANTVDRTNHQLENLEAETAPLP

M3 (h) = molecular target: T20, M3 (h) (Homo sapiens, UniProt P20309)
T20 construct: gene CHRM3

ETA (h) = molecular target: T21, ETA (h) (Homo sapiens, UniProt P25101)
T21 construct: gene EDNRA

5-HT3 (h) = molecular target: T22, 5-HT3 (h) (Homo sapiens, UniProt P46098)
T22 construct: gene HTR3A
T22 sequence (P46098 whole entry): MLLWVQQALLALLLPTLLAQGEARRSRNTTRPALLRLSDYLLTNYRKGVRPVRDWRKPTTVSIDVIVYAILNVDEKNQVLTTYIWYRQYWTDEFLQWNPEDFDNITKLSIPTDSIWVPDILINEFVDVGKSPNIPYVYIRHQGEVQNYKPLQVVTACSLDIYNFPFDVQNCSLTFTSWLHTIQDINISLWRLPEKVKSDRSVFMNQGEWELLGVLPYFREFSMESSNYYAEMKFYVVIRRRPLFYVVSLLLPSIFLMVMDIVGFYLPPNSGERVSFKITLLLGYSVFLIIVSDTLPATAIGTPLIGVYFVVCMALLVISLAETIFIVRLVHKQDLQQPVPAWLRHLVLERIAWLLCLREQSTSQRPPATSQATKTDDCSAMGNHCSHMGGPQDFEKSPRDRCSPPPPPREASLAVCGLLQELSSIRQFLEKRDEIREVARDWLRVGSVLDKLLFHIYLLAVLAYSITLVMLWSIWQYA

NK2 (h) = molecular target: T23, NK2 (h) (Homo sapiens, UniProt P21452)
T23 construct: gene TACR2

5-HT1A (h) = molecular target: T24, 5-HT1A (h) (Homo sapiens, UniProt P08908)
T24 construct: gene HTR1A

Work on `Cc1ncsc1-c1ccc(CNC(=O)[C@@H]2C[C@@H](O)CN2C(=O)[C@@H](NC(=O)C2(C#N)CC2)C(C)(C)C)cc1` [VH298] yielded a remaining binding at 50 µM (EP4 (h)) of 95%, a remaining binding at 50 µM (H1 (h)) of 101% and a remaining binding at 50 µM (B2 (h)) of 101%. For the same compound, the remaining binding at 50 µM (MC4 (h)) was 98%, the remaining binding at 50 µM (AT1 (h)) was 84% and the remaining binding at 50 µM (5-HT5a (h)) was 105%. The remaining binding at 50 µM (A1 (h)) was 90%, the remaining binding at 50 µM (V1a (h)) was 95% and the remaining binding at 50 µM (NOP (ORL1) (h)) was 92%. It also gave a remaining binding at 50 µM (5-HT2B (h)) of 91%, a remaining binding at 50 µM (CCR1 (h)) of 111% and a remaining binding at 50 µM (5-HT7 (h)) of 99%. For the same compound, the remaining binding at 50 µM (CCK1 (CCKA) (h)) was 127%, the remaining binding at 50 µM (Y2 (h)) was 97% and the remaining binding at 50 µM (5-HT1B) was 117%. For the same compound, the remaining binding at 50 µM (GAL2 (h)) was 87%, the remaining binding at 50 µM (M2 (h)) was 94% and the remaining binding at 50 µM (D2S (h)) was 91%. It also gave a remaining binding at 50 µM [1] of 96%, a remaining binding at 50 µM (mu (MOP) (h)) of 106% and a remaining binding at 50 µM (M3 (h)) of 95%. It also gave a remaining binding at 50 µM (ETA (h)) of 88%, a remaining binding at 50 µM (5-HT3 (h)) of 92% and a remaining binding at 50 µM (NK2 (h)) of 73%. It also gave a remaining binding at 50 µM (5-HT1A (h)) of 82%.
